{"source": "patent US9981959B2", "about": "“Thiazolyl and oxazolyl urea, thiourea, guanidine and cyanoguanidine compounds as TrkA kinase inhibitors” (Array BioPharma Inc., priority 2012, dated 2018)", "key": {"TrkA": {"molecular_target": "TrkA (Homo sapiens, UniProt P04629)", "experiment": "TrkA LanthaScreen Eu Kinase Binding Assay", "set-up": "6HIS tagged cytoplasmic domain from Invitrogen, Cat. No. PV3144; purchased Invitrogen PV3144", "conditions": "averaged IC50; TR-FRET binding, 60 min, 22° C.; read-out: TrkA enzyme IC50", "description": "TrkA binding activity was determined in a TrkA LanthaScreen™ Eu Kinase Binding Assay. 5 nM His-tagged recombinant human TrkA (6HIS tagged cytoplasmic domain from Invitrogen, Cat. No. PV3144) was incubated with 4 nM Alexa-Fluor® Tracer 236 (Invitrogen Cat. No. PV5592), 2 nM biotinylated anti-His (Invitrogen Cat. No. PV6090), and 2 nM europium-labeled Streptavidin (Invitrogen Cat. No. PV5899), in buffer (25 mM MOPS, pH 7.5, 5 mM MgCl2, 0.005% Triton X-100). Three fold serial dilutions of compounds of the invention in DMSO were added to a final percentage of 2% DMSO. After 60-minute incubation at 22° C., the reaction was measured using the EnVision mutlimode plate reader (PerkinElmer) via TR-FRET dual wavelength detection at […]. The percent of control was calculated using a ratiometric emission factor. The IC50 values were determined by fitting a four parameter model to the percent of control data.\nTable A provides averaged IC50 values for compounds of the invention when tested in the assay of Example A, where A represents an averaged IC50 value <100 nM; and B represents an averaged IC50 value from 100 to 1,000 nM."}, "Abl2": {"molecular_target": "T1, Abl2 (Homo sapiens, UniProt P42684)", "T1 construct": "purchased Millipore (KinaseProfiler service)", "T1 sequence (P42684 whole entry)": "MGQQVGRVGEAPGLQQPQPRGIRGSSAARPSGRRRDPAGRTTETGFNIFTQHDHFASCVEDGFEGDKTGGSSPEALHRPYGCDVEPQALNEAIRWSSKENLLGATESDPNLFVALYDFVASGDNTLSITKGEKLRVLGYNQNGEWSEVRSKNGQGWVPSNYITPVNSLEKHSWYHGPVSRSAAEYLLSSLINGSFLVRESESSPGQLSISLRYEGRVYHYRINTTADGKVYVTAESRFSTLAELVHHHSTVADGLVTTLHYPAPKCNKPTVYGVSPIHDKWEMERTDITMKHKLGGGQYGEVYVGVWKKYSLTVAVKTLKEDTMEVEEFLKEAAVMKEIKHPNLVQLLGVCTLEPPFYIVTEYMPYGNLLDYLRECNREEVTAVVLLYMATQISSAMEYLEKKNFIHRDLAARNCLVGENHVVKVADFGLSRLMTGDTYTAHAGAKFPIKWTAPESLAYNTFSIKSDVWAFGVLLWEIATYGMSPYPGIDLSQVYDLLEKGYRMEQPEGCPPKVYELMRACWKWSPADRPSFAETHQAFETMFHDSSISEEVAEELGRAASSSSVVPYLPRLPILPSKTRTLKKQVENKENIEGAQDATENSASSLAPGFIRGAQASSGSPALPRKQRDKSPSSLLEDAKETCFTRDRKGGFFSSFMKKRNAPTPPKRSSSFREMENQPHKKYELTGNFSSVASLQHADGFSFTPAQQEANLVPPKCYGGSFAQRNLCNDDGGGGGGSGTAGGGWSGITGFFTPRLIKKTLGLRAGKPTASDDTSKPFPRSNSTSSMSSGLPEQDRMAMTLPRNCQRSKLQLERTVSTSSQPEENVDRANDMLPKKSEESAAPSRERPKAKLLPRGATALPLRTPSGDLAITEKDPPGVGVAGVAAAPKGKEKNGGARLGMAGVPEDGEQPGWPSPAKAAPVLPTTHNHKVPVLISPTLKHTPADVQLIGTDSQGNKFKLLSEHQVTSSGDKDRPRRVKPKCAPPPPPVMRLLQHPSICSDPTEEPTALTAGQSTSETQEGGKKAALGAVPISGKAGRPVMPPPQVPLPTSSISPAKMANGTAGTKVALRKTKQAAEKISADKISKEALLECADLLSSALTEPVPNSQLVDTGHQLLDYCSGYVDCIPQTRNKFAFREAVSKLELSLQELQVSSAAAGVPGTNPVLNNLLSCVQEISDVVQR", "experiment": "KinaseProfiler off-target kinase profiling", "type": "biochemical", "conditions": "10 μM, ATP near Km", "in_short": "(§1)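 ATP near Km for each enzyme; compound 10 μM; n = 2. Data given as POC (average of replicates).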"}, "TrkB": {"molecular_target": "T2, TrkB (Homo sapiens, UniProt Q16620)", "T2 construct": "purchased Millipore, Inc. (KinaseProfiler service)", "experiment": "KinaseProfiler off-target kinase profiling", "type": "biochemical", "conditions": "10 μM, ATP near Km", "in_short": "as §1"}, "Bmx": {"molecular_target": "T3, Bmx (Homo sapiens, UniProt P51813)", "T3 construct": "purchased Millipore (KinaseProfiler service)", "T3 sequence (P51813 whole entry)": "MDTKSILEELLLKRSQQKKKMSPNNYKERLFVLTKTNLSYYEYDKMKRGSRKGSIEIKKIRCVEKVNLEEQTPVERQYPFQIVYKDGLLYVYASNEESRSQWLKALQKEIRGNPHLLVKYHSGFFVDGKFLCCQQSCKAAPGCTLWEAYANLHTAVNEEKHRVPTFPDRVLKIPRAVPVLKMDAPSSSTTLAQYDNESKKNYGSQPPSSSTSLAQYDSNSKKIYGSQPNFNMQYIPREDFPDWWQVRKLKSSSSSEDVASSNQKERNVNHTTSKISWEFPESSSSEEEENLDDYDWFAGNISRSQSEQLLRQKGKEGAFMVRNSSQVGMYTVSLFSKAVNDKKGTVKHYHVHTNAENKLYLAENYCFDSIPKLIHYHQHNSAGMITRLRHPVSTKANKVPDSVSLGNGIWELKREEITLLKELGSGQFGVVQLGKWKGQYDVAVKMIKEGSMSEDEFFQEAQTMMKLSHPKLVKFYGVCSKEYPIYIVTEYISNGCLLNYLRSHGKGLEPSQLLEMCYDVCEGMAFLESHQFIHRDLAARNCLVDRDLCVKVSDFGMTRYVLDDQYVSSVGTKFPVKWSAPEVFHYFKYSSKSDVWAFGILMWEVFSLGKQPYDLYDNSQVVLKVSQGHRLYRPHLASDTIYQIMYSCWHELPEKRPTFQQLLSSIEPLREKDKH", "experiment": "KinaseProfiler off-target kinase profiling", "type": "biochemical", "conditions": "10 μM, ATP near Km", "in_short": "as §1"}, "EphB3": {"molecular_target": "T4, EphB3 (Homo sapiens, UniProt P54753)", "T4 construct": "purchased Millipore, Inc. (KinaseProfiler service)", "T4 sequence (P54753 34-998)": "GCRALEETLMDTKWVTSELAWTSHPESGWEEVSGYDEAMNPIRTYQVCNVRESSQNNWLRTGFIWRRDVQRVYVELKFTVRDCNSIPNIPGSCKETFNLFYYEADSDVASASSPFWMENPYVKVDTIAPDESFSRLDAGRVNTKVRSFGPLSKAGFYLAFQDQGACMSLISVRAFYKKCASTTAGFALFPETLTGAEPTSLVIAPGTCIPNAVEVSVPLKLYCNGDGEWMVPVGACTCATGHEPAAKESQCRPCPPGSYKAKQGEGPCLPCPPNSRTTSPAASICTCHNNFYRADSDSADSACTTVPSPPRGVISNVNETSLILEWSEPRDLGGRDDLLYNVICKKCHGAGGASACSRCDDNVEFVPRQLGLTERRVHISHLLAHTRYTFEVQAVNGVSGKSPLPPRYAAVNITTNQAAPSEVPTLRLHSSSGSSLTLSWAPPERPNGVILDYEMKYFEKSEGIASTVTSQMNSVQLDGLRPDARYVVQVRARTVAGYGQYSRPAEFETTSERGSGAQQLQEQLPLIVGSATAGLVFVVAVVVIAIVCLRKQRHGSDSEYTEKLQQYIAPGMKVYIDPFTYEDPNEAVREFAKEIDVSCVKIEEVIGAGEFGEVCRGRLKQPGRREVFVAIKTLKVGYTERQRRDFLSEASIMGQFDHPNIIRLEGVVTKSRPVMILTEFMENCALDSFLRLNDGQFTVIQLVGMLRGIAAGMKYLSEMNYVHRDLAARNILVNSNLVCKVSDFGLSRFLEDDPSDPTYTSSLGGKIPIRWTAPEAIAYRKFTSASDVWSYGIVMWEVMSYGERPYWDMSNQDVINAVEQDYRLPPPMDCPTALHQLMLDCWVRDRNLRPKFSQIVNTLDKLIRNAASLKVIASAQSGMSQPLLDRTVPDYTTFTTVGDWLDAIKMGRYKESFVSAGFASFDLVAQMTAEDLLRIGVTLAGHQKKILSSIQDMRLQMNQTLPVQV", "experiment": "KinaseProfiler off-target kinase profiling", "type": "biochemical", "conditions": "10 μM, ATP near Km", "in_short": "as §1"}, "MAP3K5": {"molecular_target": "T5, MAP3K5 (Homo sapiens, UniProt Q99683)", "T5 construct": "purchased Millipore, Inc. (KinaseProfiler service)", "experiment": "KinaseProfiler off-target kinase profiling", "type": "biochemical", "conditions": "10 μM, ATP near Km", "in_short": "as §1"}, "mTOR": {"molecular_target": "T6, mTOR (Homo sapiens, UniProt P42345)", "T6 construct": "purchased Millipore, Inc. (KinaseProfiler service)", "experiment": "KinaseProfiler off-target kinase profiling", "type": "biochemical", "conditions": "10 μM, ATP near Km", "in_short": "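Each kinase is assayed with ATP close to its own Km in the presence of 10 μM compound, in duplicate. The two replicates are averaged and expressed as percent of control.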"}, "DDR2": {"molecular_target": "T7, DDR2 (Homo sapiens, UniProt Q16832)", "T7 construct": "purchased Millipore, Inc. (KinaseProfiler service)", "experiment": "KinaseProfiler off-target kinase profiling", "type": "biochemical", "conditions": "10 μM, ATP near Km", "in_short": "as §1"}, "CAMK1d": {"molecular_target": "T8, CAMK1d (Homo sapiens, UniProt Q8IU85)", "T8 construct": "purchased Millipore (KinaseProfiler service)", "T8 sequence (Q8IU85 whole entry)": "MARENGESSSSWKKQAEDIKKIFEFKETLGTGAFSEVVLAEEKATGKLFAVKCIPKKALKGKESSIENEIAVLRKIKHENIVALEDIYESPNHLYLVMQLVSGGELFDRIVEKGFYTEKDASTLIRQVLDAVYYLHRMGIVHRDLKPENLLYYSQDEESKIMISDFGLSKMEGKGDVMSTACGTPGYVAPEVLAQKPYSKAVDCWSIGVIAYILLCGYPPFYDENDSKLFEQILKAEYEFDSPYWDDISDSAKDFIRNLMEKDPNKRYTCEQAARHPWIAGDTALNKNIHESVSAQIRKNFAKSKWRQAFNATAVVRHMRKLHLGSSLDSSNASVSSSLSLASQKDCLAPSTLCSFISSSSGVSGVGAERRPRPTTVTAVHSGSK", "experiment": "KinaseProfiler off-target kinase profiling", "type": "biochemical", "conditions": "10 μM, ATP near Km", "in_short": "as §1"}, "Lyn": {"molecular_target": "T9, Lyn (Homo sapiens, UniProt P07948)", "T9 construct": "purchased Millipore, Inc. (KinaseProfiler service)", "experiment": "KinaseProfiler off-target kinase profiling", "type": "biochemical", "conditions": "10 μM, ATP near Km", "in_short": "as §1"}, "CDK5/p25": {"molecular_target": "T10, CDK5/p25 (Homo sapiens, UniProt Q00535)", "T10 construct": "purchased Millipore, Inc. (KinaseProfiler service)", "T10 sequence (Q00535 whole entry)": "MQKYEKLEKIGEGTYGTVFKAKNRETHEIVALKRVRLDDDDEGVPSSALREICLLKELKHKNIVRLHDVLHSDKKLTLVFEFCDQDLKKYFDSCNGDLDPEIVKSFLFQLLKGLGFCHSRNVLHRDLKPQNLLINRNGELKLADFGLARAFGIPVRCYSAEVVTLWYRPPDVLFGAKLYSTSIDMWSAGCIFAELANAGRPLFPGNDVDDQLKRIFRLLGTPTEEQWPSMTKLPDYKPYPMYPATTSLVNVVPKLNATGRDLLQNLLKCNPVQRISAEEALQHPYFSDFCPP", "T10 sequence (Q15078 99-307 partner limits assumed)": "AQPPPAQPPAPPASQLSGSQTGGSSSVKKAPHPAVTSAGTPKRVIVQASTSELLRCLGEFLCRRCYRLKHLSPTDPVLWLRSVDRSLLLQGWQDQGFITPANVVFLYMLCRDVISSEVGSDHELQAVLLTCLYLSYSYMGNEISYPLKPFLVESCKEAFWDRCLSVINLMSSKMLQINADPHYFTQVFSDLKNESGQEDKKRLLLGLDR", "experiment": "KinaseProfiler off-target kinase profiling", "type": "biochemical", "conditions": "10 μM, ATP near Km", "in_short": "as §1"}, "LOK": {"molecular_target": "T11, LOK (Homo sapiens, UniProt O94804)", "T11 construct": "purchased Millipore, Inc. (KinaseProfiler service)", "experiment": "KinaseProfiler off-target kinase profiling", "type": "biochemical", "conditions": "10 μM, ATP near Km", "in_short": "as §1"}, "PASK": {"molecular_target": "T12, PASK (Homo sapiens, UniProt Q96RG2)", "T12 construct": "purchased Millipore, Inc. (KinaseProfiler service)", "experiment": "KinaseProfiler off-target kinase profiling", "type": "biochemical", "conditions": "10 μM, ATP near Km", "in_short": "as §1"}, "Fer": {"molecular_target": "T13, Fer (Homo sapiens, UniProt P16591)", "T13 construct": "purchased Millipore, Inc. (KinaseProfiler service)", "experiment": "KinaseProfiler off-target kinase profiling", "type": "biochemical", "conditions": "10 μM, ATP near Km", "in_short": "as §1"}, "TAO3": {"molecular_target": "T14, TAO3 (Homo sapiens, UniProt Q9H2K8)", "T14 construct": "purchased Millipore, Inc. (KinaseProfiler service)", "experiment": "KinaseProfiler off-target kinase profiling", "type": "biochemical", "conditions": "10 μM, ATP near Km", "in_short": "as §1"}, "p70S6K": {"molecular_target": "T15, p70S6K (Homo sapiens, UniProt P23443)", "T15 construct": "purchased Millipore, Inc. (KinaseProfiler service)", "experiment": "KinaseProfiler off-target kinase profiling", "type": "biochemical", "conditions": "10 μM, ATP near Km", "in_short": "as §1"}, "CAMK4": {"molecular_target": "T16, CAMK4 (Homo sapiens, UniProt Q16566)", "T16 construct": "purchased Millipore (KinaseProfiler service)", "experiment": "KinaseProfiler off-target kinase profiling", "type": "biochemical", "conditions": "10 μM, ATP near Km", "in_short": "as §1"}, "HIPK2": {"molecular_target": "T17, HIPK2 (Homo sapiens, UniProt Q9H2X6)", "T17 construct": "purchased Millipore, Inc. (KinaseProfiler service)", "experiment": "KinaseProfiler off-target kinase profiling", "type": "biochemical", "conditions": "10 μM, ATP near Km", "in_short": "as §1"}, "DRAK1": {"molecular_target": "T18, DRAK1 (Homo sapiens, UniProt Q9UEE5)", "T18 construct": "purchased Millipore, Inc. (KinaseProfiler service)", "experiment": "KinaseProfiler off-target kinase profiling", "type": "biochemical", "conditions": "10 μM, ATP near Km", "in_short": "as §1"}, "BTK": {"molecular_target": "T19, BTK (Homo sapiens, UniProt Q06187)", "T19 construct": "purchased Millipore (KinaseProfiler service)", "experiment": "KinaseProfiler off-target kinase profiling", "type": "biochemical", "conditions": "10 μM, ATP near Km", "in_short": "as §1"}, "RIPK2": {"molecular_target": "T20, RIPK2 (Homo sapiens, UniProt O43353)", "T20 construct": "purchased Millipore, Inc. (KinaseProfiler service)", "experiment": "KinaseProfiler off-target kinase profiling", "type": "biochemical", "conditions": "10 μM, ATP near Km", "in_short": "as §1"}, "EGFR": {"molecular_target": "T21, EGFR (Homo sapiens, UniProt P00533)", "T21 construct": "purchased Millipore, Inc. (KinaseProfiler service)", "experiment": "KinaseProfiler off-target kinase profiling", "type": "biochemical", "conditions": "10 μM, ATP near Km", "in_short": "as §1"}, "EphA3": {"molecular_target": "T22, EphA3 (Homo sapiens, UniProt P29320)", "T22 construct": "purchased Millipore, Inc. (KinaseProfiler service)", "experiment": "KinaseProfiler off-target kinase profiling", "type": "biochemical", "conditions": "10 μM, ATP near Km", "in_short": "as §1"}, "CK1gamma1": {"molecular_target": "T23, CK1gamma1 (Homo sapiens, UniProt Q9HCP0)", "T23 construct": "purchased Millipore, Inc. (KinaseProfiler service)", "experiment": "KinaseProfiler off-target kinase profiling", "type": "biochemical", "conditions": "10 μM, ATP near Km", "in_short": "as §1"}, "JNK2alpha2": {"molecular_target": "T24, JNK2alpha2 (Homo sapiens, UniProt P45984)", "T24 construct": "purchased Millipore, Inc. (KinaseProfiler service)", "experiment": "KinaseProfiler off-target kinase profiling", "type": "biochemical", "conditions": "10 μM, ATP near Km", "in_short": "as §1"}, "PKD2": {"molecular_target": "T25, PKD2 (Homo sapiens, UniProt Q9BZL6)", "T25 construct": "purchased Millipore, Inc. (KinaseProfiler service)", "experiment": "KinaseProfiler off-target kinase profiling", "type": "biochemical", "conditions": "10 μM, ATP near Km", "in_short": "as §1"}, "HIPK1": {"molecular_target": "T26, HIPK1 (Homo sapiens, UniProt Q86Z02)", "T26 construct": "purchased Millipore, Inc. (KinaseProfiler service)", "T26 sequence (Q86Z02 whole entry)": "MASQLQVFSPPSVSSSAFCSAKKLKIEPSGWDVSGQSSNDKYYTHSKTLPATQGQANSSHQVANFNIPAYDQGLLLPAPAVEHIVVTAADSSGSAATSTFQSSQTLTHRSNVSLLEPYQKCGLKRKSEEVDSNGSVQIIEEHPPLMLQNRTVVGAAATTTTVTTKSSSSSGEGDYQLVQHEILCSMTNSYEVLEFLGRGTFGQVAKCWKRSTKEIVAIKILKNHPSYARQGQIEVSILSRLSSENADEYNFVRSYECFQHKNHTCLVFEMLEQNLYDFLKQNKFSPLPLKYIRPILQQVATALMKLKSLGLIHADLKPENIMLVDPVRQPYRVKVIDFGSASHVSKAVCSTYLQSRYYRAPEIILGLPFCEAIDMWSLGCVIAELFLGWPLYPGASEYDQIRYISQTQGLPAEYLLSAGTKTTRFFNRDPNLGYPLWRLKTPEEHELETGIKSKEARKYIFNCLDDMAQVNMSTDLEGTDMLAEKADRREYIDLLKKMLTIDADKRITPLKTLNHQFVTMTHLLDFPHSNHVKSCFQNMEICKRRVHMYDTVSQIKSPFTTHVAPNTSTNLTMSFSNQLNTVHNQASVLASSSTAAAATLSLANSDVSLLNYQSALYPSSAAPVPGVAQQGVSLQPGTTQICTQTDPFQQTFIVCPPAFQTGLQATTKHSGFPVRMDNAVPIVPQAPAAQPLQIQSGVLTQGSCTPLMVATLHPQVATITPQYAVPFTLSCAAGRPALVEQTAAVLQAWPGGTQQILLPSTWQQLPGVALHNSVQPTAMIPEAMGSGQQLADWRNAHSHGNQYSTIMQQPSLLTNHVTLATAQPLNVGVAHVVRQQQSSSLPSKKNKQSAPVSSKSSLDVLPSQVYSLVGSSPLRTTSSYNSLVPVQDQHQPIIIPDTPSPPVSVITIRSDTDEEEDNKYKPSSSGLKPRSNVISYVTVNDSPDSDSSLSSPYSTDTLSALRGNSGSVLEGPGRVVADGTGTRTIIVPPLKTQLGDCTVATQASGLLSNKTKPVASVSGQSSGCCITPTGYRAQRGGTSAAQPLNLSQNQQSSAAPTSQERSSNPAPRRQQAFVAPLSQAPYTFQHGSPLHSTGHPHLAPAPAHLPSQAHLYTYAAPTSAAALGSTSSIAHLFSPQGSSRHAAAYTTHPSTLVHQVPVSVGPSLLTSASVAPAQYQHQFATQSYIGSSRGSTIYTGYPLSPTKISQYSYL", "experiment": "KinaseProfiler off-target kinase profiling", "type": "biochemical", "conditions": "10 μM, ATP near Km", "in_short": "as §1"}}, "note": "pIC50: −log10 of the molar value."}
{"smiles": "Cc1c(-c2cnn(C)c2)nn(-c2ccccc2)c1NC(=O)Nc1sc(C(F)(F)F)nc1-c1ccccc1", "note": "[Example 2, 1-(1′,4-dimethyl-1-phenyl-1H,1′H-[3,4′-bipyrazol]-5-yl)-3-(4-phenyl-2-(trifluoromethyl)thiazol-5-yl)urea]", "values": [{"measurement": "pIC50", "setting": "TrkA", "value": "> 7.00"}, {"measurement": "Avg POC", "setting": "Abl2", "value": 136, "unit": "POC"}, {"measurement": "Avg POC", "setting": "TrkB", "value": 3, "unit": "POC"}, {"measurement": "Avg POC", "setting": "Bmx", "value": 129.5, "unit": "POC"}, {"measurement": "Avg POC", "setting": "EphB3", "value": 72.5, "unit": "POC"}, {"measurement": "Avg POC", "setting": "MAP3K5", "value": 107.5, "unit": "POC"}, {"measurement": "Avg POC", "setting": "mTOR", "value": 92.5, "unit": "POC"}, {"measurement": "Avg POC", "setting": "DDR2", "value": 98, "unit": "POC"}, {"measurement": "Avg POC", "setting": "CAMK1d", "value": 132.5, "unit": "POC"}, {"measurement": "Avg POC", "setting": "Lyn", "value": 103.5, "unit": "POC"}, {"measurement": "Avg POC", "setting": "CDK5/p25", "value": 104.5, "unit": "POC"}, {"measurement": "Avg POC", "setting": "LOK", "value": 110.5, "unit": "POC"}, {"measurement": "Avg POC", "setting": "PASK", "value": 113, "unit": "POC"}, {"measurement": "Avg POC", "setting": "Fer", "value": 78.5, "unit": "POC"}, {"measurement": "Avg POC", "setting": "TAO3", "value": 94, "unit": "POC"}, {"measurement": "Avg POC", "setting": "p70S6K", "value": 322, "unit": "POC"}, {"measurement": "Avg POC", "setting": "CAMK4", "value": 132.5, "unit": "POC"}, {"measurement": "Avg POC", "setting": "HIPK2", "value": 98.5, "unit": "POC"}, {"measurement": "Avg POC", "setting": "DRAK1", "value": 119, "unit": "POC"}, {"measurement": "Avg POC", "setting": "BTK", "value": 123, "unit": "POC"}, {"measurement": "Avg POC", "setting": "RIPK2", "value": 98, "unit": "POC"}, {"measurement": "Avg POC", "setting": "EGFR", "value": 111, "unit": "POC"}, {"measurement": "Avg POC", "setting": "EphA3", "value": 120, "unit": "POC"}, {"measurement": "Avg POC", "setting": "CK1gamma1", "value": 104, "unit": "POC"}, {"measurement": "Avg POC", "setting": "JNK2alpha2", "value": 97.5, "unit": "POC"}, {"measurement": "Avg POC", "setting": "PKD2", "value": 110.5, "unit": "POC"}, {"measurement": "Avg POC", "setting": "HIPK1", "value": 108, "unit": "POC"}]}
